Key:
[1] = system: cytokine production in whole blood stimulated with Dynabeads Human T-Activator CD3/CD28; assay: Whole blood assay, plasma cytokines after CD3/CD28 stimulation (MSD multiplex); assay type: cell-based; conditions: 0.3 μM, 1 μM, 19 hours at 37° C., n=6
Method: An in vitro study was conducted to investigate the impact of Compound 1 on eosinophil and neutrophil activation and cytokine production that play a role in contributing to eosinophilic and noneosinophilic (neutrophilic) asthma endotypes. Whole blood from healthy volunteers was unstimulated (Unstim) or stimulated with Dynabeads™ Human T-Activator CD3/CD28 in the absence (0) or presence (0.3 μM, 1 μM) of Compound 1 for a total of 19 hours at 37° C. Whole blood was analyzed for cell surface activation marker CD69 gated for eosinophils or neutrophils by flow cytometry (n=12). Plasma was isolated from the whole blood and analyzed for various cytokines using a MSD multiplex platform (n=6). […] Because Compound 1 inhibits the production of Th2/Th1/Th17 cytokines and reduces activation of eosinophils and neutrophils Compound 1 provides an endotype-agnostic means to treat severe asthma.
FIGS. 2-4 depict the effect of Compound 1 on cytokine levels in a whole blood assay. Plasma was isolated from whole blood samples and analyzed for Th2 cytokines (FIGS. 2A-C: IL-4, IL-5, and IL-13 respectively); Th1/Th17 cytokines (FIGS. 3A-C: IFNγ, TNFα, and IL-22 respectively), and other inflammatory cytokines/chemokines (FIGS. 4A-B: CXCL10 and IL-6 respectively). Each symbol represents a different donor. Values from individual donors are shown, along with mean value for each treatment. Data was plotted in GraphPad PRISM v.9.3.1 and analyzed by a paired t test (*:p<0.05; **:p≤0.01; ***:p≤0.001).

[2] = system: HDM-induced severe asthma model; assay: House dust mite (HDM)-induced severe asthma model, lung mechanics after methacholine challenge; assay type: in vivo, female BALB/c mice
Method: (§1) In vivo studies were conducted to test Compound 1 in two models of severe asthma. The first study conducted included an experimental house dust mite (HDM)-induced severe asthma model representative of both Th2/eosinophilic and Th1/Th17/neutrophilic asthma endotypes. The second study conducted included an ovalbumin (OVA) model of acute asthma which more closely represents a Th2/eosinophilic asthma endotype. For each model, fifty-eight female BALB/c mice were randomly and prospectively assigned to six groups, one group of six, one group of twelve, and four groups of ten animals each (see Table 3).
HDM model: On Day 0, animals in Groups 2-6 were sensitized with 50 μg of HDM in an emulsion with 150 μg of complete Freund's adjuvant (CFA) in a 100 μL volume by subcutaneous injection (SC). Animals in Groups 2-6 were challenged on Day 14 with 50 μg HDM in 40 μL saline via intra-nasal instillation (IN). Group 1 served as the naïve control group. On Days 12, 13, 14, and 15, animals in Groups 2-6 were dosed according to Table 3. […] On Day 16, animals underwent methacholine challenge with lung mechanics measurements using a flexi Vent mechanical ventilator.
(§2) . Elasticity of the lung (H) shown in FIGS. 6A-B and airway resistance in small airways and alveoli (G) shown in FIGS. 7A-B were measured using a flexiVent mechanical ventilator following challenge with 25 mg/mL methacholine. Group numbers represent the following treatments: 1) naïve; 2) diseased, vehicle treated; 3) diseased, Compound 1 (1 mg/kg); […]; and 6) diseased, positive control. Data are presented as mean±SEM. n=6-12 per group. Statistical significance between groups was determined by one-way ANOVA with Dunnett's multiple comparisons test used to compare all groups to the vehicle-control group. (*:p<0.05; **:p≤0.01).

[3] = system: OVA model of acute asthma; assay: Ovalbumin (OVA) model of acute asthma, lung mechanics after methacholine challenge; assay type: in vivo, female BALB/c mice
Method: as §1
OVA model: On Day 0 and Day 7, animals in Groups 2-6 were sensitized with 20 μg of OVA and 1.5 mg Alum in 100 μL volume by intraperitoneal injection (IP). Animals in Groups 2-6 were challenged on Day 13, 14, and 15 with 20 μg OVA in 50 μL PBS via intra-nasal instillation (IN). Group I served as the naïve control group. On Days 12, 13, 14, and 15, animals in Groups 2-6 were dosed according to Table 3. On Day 16, animals underwent methacholine challenge with lung mechanics measurements using a flexiVent mechanical ventilator.
as §2

Cc1n[nH]c(C)c1-c1cnn(C2(CC#N)CN(c3cc(F)c(C(=O)N[C@@H](C)C(F)(F)F)cc3F)C2)c1 [Compound 1, 4-[3-(cyanomethyl)-3-(3′,5′-dimethyl-1H,1′H-4,4′-bipyrazol-1-yl)azetidin-1-yl]-2,5-difluoro-N-[(1S)-2,2,2-trifluoro-1-methylethyl]benzamide]
Th1 and Th17/Th22 cytokines (IFNγ, TNFα, IL-22) [1]: reduced Th1 and Th17/Th22 cytokines induced by T-cell activation in a concentration-dependent manner | inflammatory cytokines/chemokines (CXCL10, IL-6) [1]: reduced inflammatory cytokines/chemokines induced by T cell activation in a concentration-dependent manner | levels of Th2 cytokines (IL-4, IL-5, IL-13) [1]: reduced the levels of Th2 cytokines induced by T-cell activation in a concentration-dependent manner | elasticity of the lung (H) ([2]; 25 mg/mL methacholine): decreases | resistance in small airways and alveoli (G) ([2]; 25 mg/mL methacholine): decreases | airway measures (Rrs, Ers, G, H), difference between groups ([2]; 10 and 30 mg/kg, Days 12-15, methacholine challenge Day 16): no significant differences | elasticity of the lung (H) ([3]; 10 mg/kg dose): significant reduction | resistance in small airways and alveoli (G) ([3]; 10 mg/kg dose): significant reduction | elasticity of the lung (H) ([3]; 25 mg/mL methacholine): reversed the elevation | resistance in small airways and alveoli (G) ([3]; 25 mg/mL methacholine): reversed the elevation

Reference: patent publication US20240307353A1, “JAK1 PATHWAY INHIBITORS FOR THE TREATMENT OF ASTHMA” (Incyte Corporation, priority 2023, published 2024)
